The test system of one data set is mouse plasma albumin. Put plainly: Plasma protein binding (PPB), mouse. More on the design: key: NA indicates that the plasma protein binding is too high, and no free drug is detected at a normal plasma protein concentration. The class given is in vitro ADME. As to conditions: ultracentrifugation. The method, then: The binding degree of the assay compound to human/mouse plasma albumin was studied.
1. Matrix preparation: on the day of the assay, plasma was thawed in cold water and centrifuged at 3220 rpm for 5 min to remove all clots. The pH of the resulting plasma was measured and adjusted to 7.4±0.1 using 1% phosphoric acid or IN sodium hydroxide as needed.
2. Dilution procedure for the assay compound: the assay compound was dissolved in dimethyl sulfoxide (DMSO) to prepare stock solutions with concentrations of 10 mM and 2 mM, respectively. A 40 μM working solution was prepared by diluting 2 μL of stock solution (2 mM) with 98 μL of DMSO. A 400 μM working solution of the control compound was prepared by diluting 10 μL of stock solution with 240 μL of DMSO. The working solution of the compound (5 μL) was mixed well with a blank matrix (995 μL) at a ratio of 1:200 to prepare a loading matrix.
3.1 An equal volume of 30 μL of loading matrix (n=2) was transferred to a sample collection plate to prepare a time 0 (T0) sample for residue determination. […]
3.4 At the end of centrifugation, 30 μL of protein-free samples and 30 μL of T samples were transferred from the second layer of the supernatant (below the top layer) to a new sample collection plate. […] The mixture was centrifuged at 4000 rpm for 20 min and 100 μL of supernatant from each sample was analyzed by LC-MS/MS.

A further data set addresses T1, GIPR (Homo sapiens, UniProt P48546).
T1 construct: host or cells: CHO
T1 sequence (P48546 22-466): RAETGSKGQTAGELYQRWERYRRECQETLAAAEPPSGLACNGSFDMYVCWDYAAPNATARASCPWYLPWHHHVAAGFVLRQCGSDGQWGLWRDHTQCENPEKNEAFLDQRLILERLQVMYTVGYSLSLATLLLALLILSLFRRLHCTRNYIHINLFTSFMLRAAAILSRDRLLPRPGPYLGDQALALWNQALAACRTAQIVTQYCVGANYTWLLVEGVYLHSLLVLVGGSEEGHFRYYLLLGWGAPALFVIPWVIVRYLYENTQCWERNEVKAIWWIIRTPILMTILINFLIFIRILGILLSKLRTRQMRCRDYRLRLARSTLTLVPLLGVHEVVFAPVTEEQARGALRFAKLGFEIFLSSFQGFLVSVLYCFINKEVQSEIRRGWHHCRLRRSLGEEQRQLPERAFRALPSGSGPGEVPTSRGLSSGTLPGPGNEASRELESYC
Kind of data set: In vitro agonistic activity on GIPR (cAMP assay). The class given is cell-based. As to conditions: CHO cell line; for Agonistic activity on GIPR Max Activity (%): Max Dose 20 nM. The method, then:
(§1) The cell lines were constructed by Shanghai WuXi AppTec.
(§2) The compounds to be assayed were serially diluted 4-fold with Bravo to obtain 10 concentrations, with a starting concentration of 30 μM.
(§3) 1) 100 nL of the compound was transferred to an OptiPlate-384 plate using Echo.
(§4) 2) The OptiPlate-384 plate was centrifuged at 1000 rpm for 5 seconds.
(§5) 1) A GLP-1R/GIPR/GCGR cell cryopreservation tube was quickly placed in warm water at 37° C. to thaw.
(§6) 2) The cell suspension was transferred to a 15 mL centrifuge tube, and gently washed with 10 ml of HBSS.
(§7) 3) The centrifuge tube was centrifuged at 1000 rpm at room temperature for 1 minute.
(§8) 4) The supernatant was discarded.
(§9) 5) The cells at the bottom were gently dispersed and gently washed with 10 ml of HBSS. The cells were centrifuged and sedimented, and finally resuspended with the assay buffer.
(§10) 6) Vi-cell was used to measure the cell density and viability.
(§11) 7) The concentration of GLP-1R/GIPR/GCGR cells was diluted to 2.0*105/mL with the assay buffer.
(§12) 8) […] of the diluted cell suspension was transferred to the OptiPlate-384 plate.
(§13) 9) The plate was incubated at room temperature for 30 minutes.
(§14) 1) 10 μL of 800 nM gradient diluted cAMP standard was added into an empty well of the OptiPlate-384 plate.
(§15) 2) 10 μL of cAMP assay reagent was added.
(§16) 3) The OptiPlate-384 plate was covered with a TopSeal-A film and incubated at room temperature for 60 minutes.
(§17) The TopSeal-A was peeled off and the plate was read on the EnVision.

Another data set deals with STZ-NASH mouse model. Kind of data set: In vivo drug efficacy in STZ-NASH mouse model. Further details: species or system C57BL/6 mice. As to conditions: STZ-NASH mice, 20 nmol/kg SC every two days, 5 weeks, endpoint. The method, then: Drug efficacy of the assay substance in the NASH model induced by streptozotocin (STZ)+high-fat diet (HFD) in C57BL/6 mice was verified.
Modeling method: Newborn mice were subcutaneously injected with STZ (200 μg/mouse) within 48 hours after birth. After 4 weeks of breastfeeding, animals with a fasting blood glucose level of >12 mmol/L were selected and subjected to a HFD feeding for 6 consecutive weeks to finally establish the NASH model. Another 8 animals were selected without STZ injection and HFD feeding (normal control group).
Administration scheme: Administration was started after one week of HFD feeding, and the first day of administration was set as Day 1. Then, the mice were subcutaneously injected every two days for 5 consecutive weeks.
Detection at the endpoint of the assay: Pathological hematoxylin-eosin staining and picro sirius red staining were performed.

The target in a further data set is T2, GLP-1R (Homo sapiens, UniProt P43220).
T2 construct: host or cells: HEK293
T2 sequence (P43220 24-463, species assumed): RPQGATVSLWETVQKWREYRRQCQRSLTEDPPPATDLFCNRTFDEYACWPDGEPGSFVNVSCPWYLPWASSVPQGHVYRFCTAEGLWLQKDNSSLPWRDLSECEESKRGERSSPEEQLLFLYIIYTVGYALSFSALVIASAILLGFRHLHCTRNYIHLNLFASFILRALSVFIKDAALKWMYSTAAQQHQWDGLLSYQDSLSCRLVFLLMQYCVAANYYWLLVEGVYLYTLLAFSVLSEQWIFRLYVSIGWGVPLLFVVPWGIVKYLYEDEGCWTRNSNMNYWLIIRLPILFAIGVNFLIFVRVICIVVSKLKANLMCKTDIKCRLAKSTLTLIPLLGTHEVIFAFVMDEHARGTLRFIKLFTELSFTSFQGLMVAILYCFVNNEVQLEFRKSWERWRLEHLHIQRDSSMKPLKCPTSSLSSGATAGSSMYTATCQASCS
Kind of data set: In vitro agonistic activity on GLP-1R (cAMP assay). Format: cell-based. As to conditions: HEK293 cell line; for Agonistic activity on GLP-1R Max Activity (%): Max Dose 20 nM. The method, then: as §1, §2, §3, §4, §5, §6, §7, §8, §9, §10, §11, §12, §13, §14, §15, §16, §17
In general terms: Changes in cAMP serve as a functional read-out for many G protein-coupled receptors.

As for `CC(C)C[C@H](NC(=O)[C@H](CC(C)C)NC(=O)[C@H](Cc1c[nH]c2ccccc12)NC(=O)[C@H](CCC(=O)O)NC(=O)[C@@H](NC(=O)[C@H](Cc1ccccc1)NC(=O)[C@H](CCC(=O)O)NC(=O)[C@@H]1CCCCNC(=O)CN(C(=O)COCCOCCNC(=O)COCCOCCNC(=O)CC[C@H](NC(=O)CCCCCCCCCCCCCCCCCCC(=O)O)C(=O)O)CC(=O)NCCCC[C@H](NC(=O)[C@H](CCC(=O)O)NC(=O)[C@H](CC(=O)O)NC(=O)[C@H](CC(C)C)NC(=O)[C@H](Cc2ccc(O)cc2)NC(=O)[C@H](CCCCN)NC(=O)[C@H](CO)NC(=O)[C@H](Cc2ccc(O)cc2)NC(=O)[C@H](CC(=O)O)NC(=O)[C@H](CO)NC(=O)[C@@H](NC(=O)[C@H](Cc2ccccc2)NC(=O)[C@@H](NC(=O)CNC(=O)[C@H](CCC(N)=O)NC(=O)C(C)(C)NC(=O)[C@@H](N)Cc2c[nH]cn2)[C@@H](C)O)[C@@H](C)O)C(=O)N[C@@H](CCCCN)C(=O)N[C@@H](C)C(=O)N1)C(C)C)C(=O)N[C@@H](CCC(=O)O)C(=O)NCC(=O)NCC(=O)N1CCC[C@H]1C(=O)N[C@@H](CO)C(=O)N[C@@H](CO)C(=O)NCC(N)=O` [WX001], in the data set on mouse plasma albumin, the “PPB % unbound (mouse)” value is reported as “NA/NA”. Also, on GIPR, the concentration for a half-maximal effect (EC50) (in general, the concentration needed to bring the measured effect to its halfway point) is > 20 nM and the “Agonistic activity on GIPR Max Activity (%)” value is 2.26%. In the data set with STZ-NASH mouse model, the Ballooning score worked out at 0, the “Fibrosis (%)” value is 1.21%, the Inflammation score is 1.63 and the NAS score was 2.63. The molecule further returned a Steatosis score in the data set on STZ-NASH mouse model of 1.0. Further, on GLP-1R, it took 0.0227 nM to reach a half-maximal effect (EC50) and the “Agonistic activity on GLP-1R Max Activity (%)” value came out at 122.64%.

On to `CC(C)C[C@H](NC(=O)[C@H](CC(C)C)NC(=O)[C@H](Cc1c[nH]c2ccccc12)NC(=O)[C@@H]1CCCCNC(=O)CN(C(=O)COCCOCCNC(=O)COCCOCCNC(=O)CC[C@H](NC(=O)CCCCCCCCCCCCCCCCCCC(=O)O)C(=O)O)CC(=O)NCCCC[C@H](NC(=O)[C@H](C)NC(=O)[C@H](CCCCN)NC(=O)[C@H](CCCCN)NC(=O)[C@H](CCC(=O)O)NC(=O)[C@H](CC(=O)O)NC(=O)[C@H](CC(C)C)NC(=O)[C@H](Cc2ccc(O)cc2)NC(=O)[C@H](CCCCN)NC(=O)[C@H](CO)NC(=O)[C@H](Cc2ccc(O)cc2)NC(=O)[C@H](CC(=O)O)NC(=O)[C@H](CO)NC(=O)[C@@H](NC(=O)[C@H](Cc2ccccc2)NC(=O)[C@@H](NC(=O)CNC(=O)[C@H](CCC(N)=O)NC(=O)C(C)(C)NC(=O)[C@@H](N)Cc2c[nH]cn2)[C@@H](C)O)[C@@H](C)O)C(=O)N[C@@H](CCC(=O)O)C(=O)N[C@@H](Cc2ccccc2)C(=O)N[C@@H](C(C)C)C(=O)N1)C(=O)N[C@@H](CCC(=O)O)C(=O)NCC(=O)NCC(=O)N1CCC[C@H]1C(=O)N[C@@H](CO)C(=O)N[C@@H](CO)C(=O)NCC(N)=O` [WX004], for which, in the data set with mouse plasma albumin, the “PPB % unbound (mouse)” value was “NA/NA”. On GIPR, the EC50 is > 20 nM and the “Agonistic activity on GIPR Max Activity (%)” value was found to be 4.12%. In addition, at GLP-1R, a half-maximal effect (EC50) was put at 0.0446 nM and the “Agonistic activity on GLP-1R Max Activity (%)” value came to 85.77%.

These data come from US20250326815A1, “STAPLE-CONTAINING POLYPEPTIDES AND APPLICATION THEREOF” (Soter Biopharma Pte. Ltd., priority 2021, published 2025).
